A short description of data set [1]: Pharmacokinetic study of LGZGD components in plasma of normal and NAFLD rats after oral administration (UPLC-MS/MS). The class given is in vivo, Male Sprague–Dawley rats. The settings on record: for AUC0-∞ value decreased / C max value decreased: NAFLD rats compared with normal rats; for AUC(0-inf) / AUC(0-t) / Cmax / Tmax / half-life / MRT last: male, Sprague-Dawley, rat, plasma, po, 23 g/kg, male SD rats, oral LGZGD extract 23 g/kg, mean ± SD, n = 6; for MRT last: read-out: MRT0-t. The method, then: Male Sprague–Dawley rats, weighing 200–220 g, SPF grade, were purchased from Shanghai Sippr-BK laboratory animal Co. Ltd. (Shanghai, China) and raised in the Laboratory Animal Center of Shanghai University of Traditional Chinese Medicine. The rats were kept in an environmentally controlled condition: on a 12:12 h light–dark cycle (lights on at 7:00 a.m.) with regulated temperature and humidity, at a temperature of 22°C–24°C and a relative humidity of 60–65%. In the experiment, the rats in the normal group were fed a certified standard rat diet and tap water, while those in the model group were fed a high-fat diet for 8 weeks to construct the NAFLD model (high-fat diet: 2% cholesterol, 10% lard, 0.1% sodium cholate, 10% yolk powder, and 77.9% normal diet). The animal experiment program was approved by the Animal Committee of Shanghai University of Traditional Chinese Medicine (License No.: PZSHUTCM201016001).
An Agilent 1290 UPLC system was combined with an Agilent 6460 series MS/MS system (Agilent Technologies, Santa Clara, CA, United States) to quantify the analytes in the ESI-positive ionization mode. The mass spectrum conditions were as follows: a capillary voltage of 4,000 V; a gas flow rate of 10 L/min; a nebulizer of 30 psi; a gas temperature of 350°C; and a Delta EMV(+) of 200 V. Five microliters of the samples was injected into an Agilent SB-C18 column (2.1 mm × 50 mm, 1.8 μm particles). The analytes were separated using the gradient elution method, and the mobile phase was composed of water (0.05% V/V formic acid) (A) and acetonitrile (B) at a flow rate of 0.4 mL/min (0–1 min, 10–10% B; 1–5 min, 10–90% B; 5–7 min, 90–90% B; and 7–7.1 min, B 90–10%; rebalance for 2 min).
A plasma sample of 50 µL was placed in a 1.5 mL centrifuge tube with 10 µL of schisandrin (IS) solution (50 ng/mL) and mixed for 5 min. The samples were successively extracted with 500 µL of ethyl acetate and treated with 250 µL of methanol, which were then mixed for 5 min and centrifuged at 4°C for 10 min (at 18,000 rpm). All the supernatant was absorbed into another 1.5 mL centrifuge tube, dried under a gentle stream of nitrogen at 37°C, and then added with 50 µL of 50% methanol for reconstruction. After being centrifuged at 4°C for 10 min (at 18,000 rpm), 5 µL of the supernatant was extracted and injected into a chromatographic column for analysis, and the chromatograms were recorded.
The rats were randomly divided into the normal group and the model group. According to the preliminary experiment, the dose was adjusted to about eight times the normal dose ([Gu, 2020]; [Li et al., 2023]). […] The animal research program was approved by the Animal Committee of Shanghai University of Traditional Chinese Medicine. At 0, 0.083, 0.25, 0.5, 0.75, 1, 2, 4, 6, 8, 10, 12, 24, and 48 h after dosing, 150 µL blood samples were collected from the rats' orbital venous plexus into centrifuge tubes containing 10 IU of sodium heparin. After being centrifuged at 5,000 rpm (4°C) for 10 min, the plasma was transferred to 1.5 mL polypropylene tubes and stored at −80°C until the plasma samples were analyzed.
Important pharmacokinetic parameters, which included the maximum plasma concentration (C max), time to maximum concentration (T max), half-life (t 1/2), area under the curve (AUC0-t), and total area under the curve (AUC0-∞), were hereby calculated using the DAS 3.2.8 software. Meanwhile, the pharmacokinetic data of the normal and model rats were compared using the SPSS software (version 21.0). Besides, Spearman rank bivariate correlation coefficient was used to determine the correlation between AUC values and UGT1A1 and nine other transporters. All the calculated data were expressed as mean ± SD. When p < 0.05, the difference was considered significant and statistically significant; and when p < 0.01 or <0.001, the difference was considered very significant.

The nature of data set [2]: Stability of the seven components in rat plasma QC samples. The class given is physicochemical. The following applies: n = 6; for Stability during 24 h at 4°C, RE: auto sampler. The method, then:
Stability refers to the ability of the components to retain their chemical properties in the matrix. To analyze the stability of all components in the plasma, six replicates of QC samples at three concentrations were hereby prepared under each condition. The stability of the QC samples at three concentrations was analyzed under different storage conditions: −80°C for 30 days, after three freeze–thaw cycles, and 24 h in an auto sampler at 4°C.

Where two headings read alike, the source gives them in different places.

The term AUC(0-inf) denotes total exposure, with the tail of the curve extrapolated. A low value points to less exposure. The AUC(0-t) is the area under the concentration-time curve up to a stated or last time point. A low value points to low exposure. The Cmax is the peak of the concentration-time curve. In general, Tmax refers to the time from dosing to the highest level. As a reminder, the half-life is the time needed for the level to fall by half in the phase considered. A high value points to slow loss.

Take `O=C(O)/C=C/c1ccccc1` [Cinnamic acid, cinnamic acid]: in data set [1] (oral LGZGD), the “AUC0-∞ value decreased” value turned out to be 58.1% and the “C max value decreased” value is given as 38.3%. Besides, in data set [1] (Model (NAFLD) group), the AUC(0-inf) was found to be 4410 ± 1420 ng·h/mL, the AUC(0-t) was 4330 ± 1330 ng·h/mL, the highest level (Cmax) was 1190 ± 352 ng/mL and the time to peak (Tmax) is 0.6 ± 0.1 h. Further, in data set [1] (Model (NAFLD) group), the half-life is 6.6 ± 3.5 h and the MRT last was determined as 6.2 ± 1.8 h. Further, in data set [1] (Normal group), the AUC(0-inf) came to 10500 ± 1900 ng·h/mL, the exposure AUC(0-t) turned out to be 10100 ± 1770 ng·h/mL, the maximum concentration (Cmax) worked out at 1930 ± 484 ng/mL and the Tmax turned out to be 0.6 ± 0.1 h. Further, in data set [1] (Normal group), the half-life was 12.8 ± 3.6 h and the MRT last came out at 8.2 ± 1.3 h. In data set [2] (high QC level), the “Stability during 24 h at 4°C, RE” value was −3.7%; the “Three freeze–thaw cycles, RE” value is −11.1%; the “−80°C for 30 days, RE” value is −2.6%. For the same compound, in data set [2] (low QC level), the “Stability during 24 h at 4°C, RE” value is reported as 8.4%; the “Three freeze–thaw cycles, RE” value was −0.4%; the “−80°C for 30 days, RE” value was −8.0%. Moreover, in data set [2] (medium QC level), the “Stability during 24 h at 4°C, RE” value is on record as 13.9%; the “Three freeze–thaw cycles, RE” value is 0.7%; the “−80°C for 30 days, RE” value came to 3.6%.

With `C=C(CC[C@@H](C(=O)O)[C@H]1[C@H](O)C[C@@]2(C)C3=CC[C@H]4C(C)(C)[C@@H](O)CC[C@]4(C)C3=CC[C@]12C)C(C)C` [Dehydrotumulosic acid, dehydrotumulosic acid], in data set [1] (oral LGZGD), the “AUC0-∞ value decreased” value was found to be 75.1% and the “C max value decreased” value was found to be 62.4%. The compound also returned an MRT decreased in data set [1] (NAFLD rats compared with the normal group, oral LGZGD) of 27.8%. Moreover, in data set [1] (Model (NAFLD) group), the AUC(0-inf) was determined as 43.5 ± 12 ng·h/mL, the AUC(0-t) was determined as 43.4 ± 12 ng·h/mL, the Cmax was 3.8 ± 0.6 ng/mL and the Tmax was 1.8 ± 1.6 h. Moreover, in data set [1] (Model (NAFLD) group), the half-life was 5 ± 1.8 h and the MRT last came to 10.4 ± 2.2 h. Further, in data set [1] (Normal group), the area under the curve AUC(0-inf) is 175 ± 37.2 ng·h/mL, the AUC(0-t) was 142 ± 15.8 ng·h/mL, the Cmax came to 10.1 ± 3 ng/mL and the Tmax turned out to be 4 ± 1.8 h. For the same compound, in data set [1] (Normal group), the half-life is 19 ± 12.2 h and the MRT last was 14.4 ± 2.7 h. Further, in data set [2] (high QC level), the “Stability during 24 h at 4°C, RE” value is −2.3%; the “Three freeze–thaw cycles, RE” value worked out at 5.5%; the “−80°C for 30 days, RE” value is given as 3.0%. Moreover, in data set [2] (low QC level), the “Stability during 24 h at 4°C, RE” value was determined as 3.8%; the “Three freeze–thaw cycles, RE” value is −12.8%; the “−80°C for 30 days, RE” value is given as 3.2%. For the same compound, in data set [2] (medium QC level), the “Stability during 24 h at 4°C, RE” value is reported as 1.6%; the “Three freeze–thaw cycles, RE” value was −4.3%; the “−80°C for 30 days, RE” value was determined as 10.2%.
